Values after ≈ are worked out from the molar mass of the structure shown. Blank lines part the entries; values can stand above or below the compound they belong to.
Experiments:
[1] = Plasma concentration in mouse at 5 mg/kg, po measured after 24 hr; assay type: ADME, organism-based
[2] = Inhibition of Wnt pathway (unknown origin); parameters: species or system Homo sapiens
[3] = biological target: Catenin beta-1/Transcription factor 7 (Homo sapiens, UniProt P35222+P36402); test: Inhibition of beta catenin/TCF (unknown origin) by immunoprecipitation method; assay type: protein assay
[4] = Chemical stability of the compound at pH 7.4 measured after 24 hrs; assay type: physicochemical; details: buffer, read-out: Stability
[5] = biological target: T1, Poly [ADP-ribose] polymerase tankyrase-2 (Homo sapiens, UniProt Q9H2K2); test: Binding affinity to human TNKS2 ARC4 assessed as dissociation constant
T1 sequence (Q9H2K2 whole entry): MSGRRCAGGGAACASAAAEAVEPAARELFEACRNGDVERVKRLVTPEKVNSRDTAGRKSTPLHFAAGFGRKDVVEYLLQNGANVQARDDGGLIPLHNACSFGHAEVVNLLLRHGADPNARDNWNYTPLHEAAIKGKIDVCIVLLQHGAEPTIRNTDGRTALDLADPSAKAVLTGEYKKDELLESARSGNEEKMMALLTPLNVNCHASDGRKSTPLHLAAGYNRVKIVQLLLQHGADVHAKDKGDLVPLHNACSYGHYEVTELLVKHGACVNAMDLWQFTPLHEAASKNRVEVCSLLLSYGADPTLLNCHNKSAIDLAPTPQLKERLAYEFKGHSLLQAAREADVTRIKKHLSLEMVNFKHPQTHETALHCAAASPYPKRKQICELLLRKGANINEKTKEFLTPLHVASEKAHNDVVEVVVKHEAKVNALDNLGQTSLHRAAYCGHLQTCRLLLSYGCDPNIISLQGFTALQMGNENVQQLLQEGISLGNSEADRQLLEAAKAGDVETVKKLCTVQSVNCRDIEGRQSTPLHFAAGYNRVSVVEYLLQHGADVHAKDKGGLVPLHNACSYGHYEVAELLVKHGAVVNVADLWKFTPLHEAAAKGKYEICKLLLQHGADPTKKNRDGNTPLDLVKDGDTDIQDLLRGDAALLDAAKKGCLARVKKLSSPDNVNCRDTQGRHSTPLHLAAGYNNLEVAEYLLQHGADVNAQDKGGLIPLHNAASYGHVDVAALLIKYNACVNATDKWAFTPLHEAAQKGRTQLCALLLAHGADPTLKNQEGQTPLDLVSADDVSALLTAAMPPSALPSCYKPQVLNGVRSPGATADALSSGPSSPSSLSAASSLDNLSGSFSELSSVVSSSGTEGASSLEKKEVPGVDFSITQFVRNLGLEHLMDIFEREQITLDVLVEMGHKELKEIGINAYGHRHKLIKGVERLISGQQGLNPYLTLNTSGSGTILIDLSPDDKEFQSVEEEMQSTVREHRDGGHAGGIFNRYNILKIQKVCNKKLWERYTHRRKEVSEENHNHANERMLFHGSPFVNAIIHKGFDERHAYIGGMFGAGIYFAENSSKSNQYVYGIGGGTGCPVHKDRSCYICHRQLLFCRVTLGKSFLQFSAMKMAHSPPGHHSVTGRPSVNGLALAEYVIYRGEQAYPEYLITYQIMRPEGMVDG

MG-63 = test: Antitumor activity against human MG-63 cells xenografted in osteosarcoma mouse model assessed as tumor growth inhibition at 5 mg/kg relative to control; assay type: functional; details: read-out: TGI
cells = details: Homo sapiens, COLO 320DM
[6] = Oral bioavailability in mouse at 2.5 mg/kg; assay type: ADME, organism-based; details: in vivo
[7] = Solubility of the compound at pH 7.4; assay type: physicochemical; details: buffer
[8] = Oral bioavailability in mouse at 10 mg/kg; assay type: ADME, organism-based; details: in vivo
HEK293 = test: Antitumor activity against human HEK293 cells xenografted in […] assessed as tumor growth inhibition at 10 mg/kg relative to control; assay type: functional; details: read-out: TGI
[9] = Half life of compound in PBS buffer; assay type: physicochemical
[10] = Inhibition of TBC (unknown origin); parameters: species or system Homo sapiens
[11] = biological target: T2, Poly [ADP-ribose] polymerase tankyrase-1 (Homo sapiens, UniProt O95271); test: Inhibition of TNKS1 (unknown origin)
T2 sequence (O95271 whole entry): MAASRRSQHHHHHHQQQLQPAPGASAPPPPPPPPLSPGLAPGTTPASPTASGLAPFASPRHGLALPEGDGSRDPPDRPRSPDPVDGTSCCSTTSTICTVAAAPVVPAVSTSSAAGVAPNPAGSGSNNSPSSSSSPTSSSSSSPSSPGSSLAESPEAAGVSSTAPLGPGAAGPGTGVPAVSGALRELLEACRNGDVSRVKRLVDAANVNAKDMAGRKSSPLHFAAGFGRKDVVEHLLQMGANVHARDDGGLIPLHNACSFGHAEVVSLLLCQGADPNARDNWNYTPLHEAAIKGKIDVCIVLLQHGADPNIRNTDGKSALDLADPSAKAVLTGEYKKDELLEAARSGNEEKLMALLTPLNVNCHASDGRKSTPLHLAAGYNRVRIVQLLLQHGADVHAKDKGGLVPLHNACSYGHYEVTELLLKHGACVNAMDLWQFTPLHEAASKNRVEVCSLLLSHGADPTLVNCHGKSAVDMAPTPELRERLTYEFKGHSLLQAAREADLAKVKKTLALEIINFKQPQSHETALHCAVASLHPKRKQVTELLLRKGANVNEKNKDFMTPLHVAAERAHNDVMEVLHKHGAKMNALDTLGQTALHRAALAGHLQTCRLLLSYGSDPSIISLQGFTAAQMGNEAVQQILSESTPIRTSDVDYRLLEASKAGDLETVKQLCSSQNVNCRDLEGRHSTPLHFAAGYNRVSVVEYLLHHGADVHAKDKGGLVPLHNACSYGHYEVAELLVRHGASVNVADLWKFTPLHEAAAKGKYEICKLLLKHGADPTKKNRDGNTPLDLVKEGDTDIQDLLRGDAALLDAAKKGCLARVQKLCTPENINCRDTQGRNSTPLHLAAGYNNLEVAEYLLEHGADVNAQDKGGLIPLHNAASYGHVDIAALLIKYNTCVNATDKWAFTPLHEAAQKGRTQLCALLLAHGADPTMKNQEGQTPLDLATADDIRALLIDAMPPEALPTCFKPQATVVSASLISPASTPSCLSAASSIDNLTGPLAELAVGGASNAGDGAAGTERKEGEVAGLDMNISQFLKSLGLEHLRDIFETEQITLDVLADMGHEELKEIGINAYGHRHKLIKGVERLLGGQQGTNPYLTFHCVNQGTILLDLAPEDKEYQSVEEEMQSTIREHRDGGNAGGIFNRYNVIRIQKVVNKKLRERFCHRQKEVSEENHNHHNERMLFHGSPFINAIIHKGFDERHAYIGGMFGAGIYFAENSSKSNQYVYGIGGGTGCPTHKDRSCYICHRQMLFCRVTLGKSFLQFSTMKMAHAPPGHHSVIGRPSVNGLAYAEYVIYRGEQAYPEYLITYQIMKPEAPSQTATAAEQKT

[12] = In vivo inhibition of MMTV-WNT1 in mouse model assessed as reduction in tumor growth at 1 mg/kg, po administered once daily for 2 weeks; assay type: functional; details: 336 h
[13] = In vivo inhibition of MMTV-WNT1 in mouse model assessed as reduction in tumor growth at 3 mg/kg, po administered once daily for 2 weeks; assay type: functional; details: 336 h
[14] = Oral bioavailability in rat at 2 mg/kg; assay type: ADME, organism-based; details: in vivo
[15] = Oral bioavailability in mouse; assay type: ADME, organism-based; details: in vivo
[16] = Oral bioavailability in dog; assay type: ADME, organism-based, Canis lupus familiaris; details: in vivo
[17] = In vivo inhibition of MMTV-WNT1 in mouse model assessed as reduction in tumor growth at 0.3 mg/kg, po administered once daily for 2 weeks; assay type: functional; details: 336 h
[18] = biological target: T1, Poly [ADP-ribose] polymerase tankyrase-2; test: Binding affinity to TNKS2 (unknown origin) assessed as inhibition constant
[19] = biological target: T2, Poly [ADP-ribose] polymerase tankyrase-1; test: Inhibition of human TNKS1 (1030 to 1317 residues) measured after 20 hrs
[20] = biological target: T1, Poly [ADP-ribose] polymerase tankyrase-2; test: Inhibition of human TNKS2 (873 to 1162 residues) measured after 15 hrs in presence of NAD+ by fluorescence assay
[21] = biological target: T1, Poly [ADP-ribose] polymerase tankyrase-2; test: Inhibition of TNKS2 (unknown origin)
HeLa = test: Antiproliferative activity against human HeLa cell line assessed as cell growth inhibition; assay type: functional, cell-based
[22] = In vivo inhibition of WNT1 in mouse model assessed as reduction in tumor volume by measuring T/C ratio at 1 mg/kg; assay type: functional
[23] = In vivo inhibition of WNT1 in mouse model assessed as reduction in tumor volume by measuring T/C ratio at 3 mg/kg; assay type: functional

Chain of Catenin beta-1/Transcription factor 7 (P36402 whole entry): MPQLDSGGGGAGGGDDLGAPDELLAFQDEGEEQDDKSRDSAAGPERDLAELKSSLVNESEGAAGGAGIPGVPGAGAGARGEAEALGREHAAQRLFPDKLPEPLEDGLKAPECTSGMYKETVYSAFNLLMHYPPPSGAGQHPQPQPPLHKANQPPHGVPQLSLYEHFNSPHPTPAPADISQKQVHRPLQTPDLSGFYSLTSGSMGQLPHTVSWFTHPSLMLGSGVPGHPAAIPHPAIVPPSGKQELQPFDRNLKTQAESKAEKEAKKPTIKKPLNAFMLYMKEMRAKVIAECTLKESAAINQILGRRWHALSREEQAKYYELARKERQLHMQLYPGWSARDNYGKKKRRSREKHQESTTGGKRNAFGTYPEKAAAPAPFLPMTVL
Chain of Catenin beta-1/Transcription factor 7 (P35222 whole entry): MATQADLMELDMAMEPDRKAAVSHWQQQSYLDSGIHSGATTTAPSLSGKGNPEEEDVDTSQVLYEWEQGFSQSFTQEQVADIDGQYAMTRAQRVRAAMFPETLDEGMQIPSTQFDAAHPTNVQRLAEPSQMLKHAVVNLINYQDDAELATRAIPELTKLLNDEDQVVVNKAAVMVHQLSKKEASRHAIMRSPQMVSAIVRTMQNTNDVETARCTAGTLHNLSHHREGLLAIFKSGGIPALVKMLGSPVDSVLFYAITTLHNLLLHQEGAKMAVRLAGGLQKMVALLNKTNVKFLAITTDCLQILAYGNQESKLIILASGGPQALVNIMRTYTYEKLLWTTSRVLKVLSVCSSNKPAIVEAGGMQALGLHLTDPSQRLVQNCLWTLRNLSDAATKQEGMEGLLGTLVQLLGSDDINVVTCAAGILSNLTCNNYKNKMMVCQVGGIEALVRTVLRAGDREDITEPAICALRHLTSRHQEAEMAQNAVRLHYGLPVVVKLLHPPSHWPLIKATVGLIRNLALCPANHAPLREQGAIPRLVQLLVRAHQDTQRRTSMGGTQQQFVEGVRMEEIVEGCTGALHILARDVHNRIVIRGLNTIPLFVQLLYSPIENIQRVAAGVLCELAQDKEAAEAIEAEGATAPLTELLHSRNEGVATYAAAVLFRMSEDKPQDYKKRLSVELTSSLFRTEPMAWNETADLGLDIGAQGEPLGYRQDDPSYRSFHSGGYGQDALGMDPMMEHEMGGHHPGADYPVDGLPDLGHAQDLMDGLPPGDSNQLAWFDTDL

Structure (SMILES): Cc1cc(-c2ccc(OC(C)C(=O)Nc3ccc(-c4cnccn4)cn3)cc2)ccn1 (stereo not given)
remaining at 24 h [4]: 71%
IC50 [2]: 0.11 nM

Structure (SMILES): CN(C)c1ccc2c(-c3ccc(C(=O)NCCCCCC(=O)N[C@@H](CCCNC(=N)N)C(=O)N[C@@H](CCC(=O)O)C(=O)N[C@H]4CCn5cc(nn5)-c5cc(C(=O)O)cc(c5)C5=CN(CC[C@@H](C(=O)N[C@@H](CCC(=O)O)C(N)=O)NC(=O)CNC(=O)[C@H](CC(=O)O)NC(=O)CNC4=O)NN5)cc3C(=O)[O-])c3ccc(=[N+](C)C)cc-3oc2c1
Kd [5]: 440 nM

Structure (SMILES): O=C(Nc1cccc2cccnc12)c1ccc(N2C(=O)[C@@H]3[C@H](C2=O)[C@@H]2C=C[C@H]3C2)cc1
inhibition in vivo at 5 mg/kg (MG-63): 71%

Structure (SMILES): Cc1cc(-c2ccc(CNC(=O)c3ccc4c(c3)[nH]c3ccccc34)cc2F)ccn1
IC50 [2]: 0.5 nM

Structure (SMILES): Cn1c(=O)c2c(ncn2CC(=O)Nc2ccc(-c3ccccc3)nn2)n(C)c1=O [ETC-159]
bioavailability [8]: 100%
inhibition in vivo at 10 mg/kg (HEK293): 94%

Structure (SMILES): N#Cc1ccc(Oc2ccc(NC(=O)CCSc3nc4ccccc4c(=O)[nH]3)cc2)cc1
half-life [9]: 2.8 h
IC50 [10]: 1.9 nM

Structure (SMILES): CC(=O)N[C@@H](CCCNC(=N)N)C(=O)N[C@@H](CCC(=O)O)C(=O)N[C@H]1CCCCn2cc(nn2)CCCCCc2cn(nn2)CCCC[C@H](C(=O)N[C@H](CCC(=O)O)C(N)=O)NC(=O)CNC(=O)[C@@H](CC(=O)O)NC(=O)CNC1=O
Kd [5]: 2800 nM

Structure (SMILES): O=C(CCC1CCCC1)Nc1nnc2n1CCS2
IC50 [11]: 1900 nM

Structure (SMILES): COc1ccccc1NC(=O)c1ccc(NC(=O)CCc2nc3ccccc3c(=O)[nH]2)cc1
half-life [9]: 0.667 h
IC50 [10]: 160 nM

Structure (SMILES): O=C(COc1ccc(-n2ccnc2)cc1)Nc1ccc(-c2ccccc2)cc1
bioavailability [6]: < 1%
solubility [7]: < 1 µg/mL

Structure (SMILES): Cc1cc(-c2ccc(CC(=O)Nc3ccc4c(c3)[nH]c3ccccc34)cc2)ccn1
IC50 [2]: 2.3 nM

Structure (SMILES): CN1CCCc2c1cc(-c1ccc(Br)cc1)[nH]c2=O
IC50 [19]: 423 nM
IC50 [20]: 6.1 nM

Structure (SMILES): O=C(CSc1nc2c(c(=O)n1-c1ccccc1)SCC2)Nc1ccc(-c2ccccc2)cn1
EC50 (HeLa): 0.5 nM

Continued, in another order:

concentration at 24 h [1]: 1 nM
IC50 [2]: 0.074 nM
Structure (SMILES): Cc1cc(-c2ccc(CC(=O)Nc3ccc(-c4cccnc4)cc3)cc2)ccn1

IC50 [3]: 3000 nM
Structure (SMILES): O=C1[C@H](Cc2ccc(O)cc2)N2C(=O)CCN(C(=O)NCc3ccccc3)[C@H]2CN1Cc1cccc2ccccc12

IC50 (cells): 2000 nM
Structure (SMILES): NS(=O)(=O)c1ccc(NC(=S)N2CCN(C/C=C/c3ccccc3)CC2)cc1

bioavailability [6]: 81%
solubility [7]: 60 µg/mL (≈ 148 µM)
Structure (SMILES): O=C(CN1CCCC2=C1C(=O)N(C1CC1)C2=O)Nc1ccc(-c2cccnc2)nn1

IC50 [2]: 12 nM
Structure (SMILES): CCCn1c(SCC(=O)Nc2nc3ccc(OC)cc3s2)nnc1-c1ccncc1

IC50 (cells): 15000 nM
Structure (SMILES): O=C(O)CCCn1c2ccccc2c2nc3nonc3nc21

IC50 [2]: 27 nM
Structure (SMILES): Cc1ccc2nc(NC(=O)CSc3nc4c(c(=O)n3-c3ccccc3)SCC4)sc2c1

bioavailability [6]: 100%
solubility [7]: 73 µg/mL (≈ 183 µM)
Structure (SMILES): C[C@H](Nc1ccc(-c2ccnn2C)nc1)C(=O)Nc1ccc(-c2cccnc2)cn1

IC50 (cells): 31000 nM
Structure (SMILES): Nc1nonc1NC(=O)Cn1c2ccccc2c2nc3nonc3nc21

bioavailability [14]: 72%
bioavailability [15]: 72%
bioavailability [16]: 96%
IC50 [2]: 0.8 nM
Structure (SMILES): CC(=O)N1CCN(c2ccc(NC(=O)Cc3cnc(-c4ccnc(F)c4)c(C)c3)nc2)CC1
inhibition in vivo at 1 mg/kg [12]: 74%
inhibition in vivo at 3 mg/kg [13]: 84%
inhibition in vivo at 0.3 mg/kg [17]: 15%

Ki [18]: 27900 nM
Structure (SMILES): CCc1ccc(OCC(=O)Nc2sc(C)c(C)c2C(N)=O)c(F)c1

IC50 [2]: 58 nM
Structure (SMILES): COc1ccc(-n2c(C(=O)NCC(=O)Nc3nc4ccc(OC)cc4s3)nc3ccccc3c2=O)cc1

solubility [7]: 15 µg/mL (≈ 39.2 µM)
Structure (SMILES): CN1C(=O)C2=C(C1=O)N(CC(=O)Nc1ccc(-c3nccs3)cc1)CCC2

IC50 [21]: 830 nM
Structure (SMILES): COc1ccc(C2(CNC(=O)c3ccc(NC(=O)c4ccco4)cc3)CCOCC2)cc1

IC50 [2]: 1 nM
Structure (SMILES): Cc1cc(-c2ncc(CC(=O)Nc3ccc(-c4cnccn4)cn3)cc2C)ccn1 [WNT-974]
inhibition in vivo at 1 mg/kg [22]: 47%
inhibition in vivo at 3 mg/kg [23]: 63%

From ChEMBL document CHEMBL5226302, “Small-Molecule Inhibitors Targeting the Canonical WNT Signaling Pathway for the Treatment of Cancer” (J Med Chem, 2021)
